Test results as given in patent US10220040B2, “Compounds, compositions and methods useful for cholesterol mobilization” (Cerenis Therapeutics Holding SA, priority 2010, dated 2019).

Tests used:
[1] = biological target: human P2Y13 receptor (Homo sapiens (Human), UniProt Q9BPV8); experiment: Ca++ flux agonist assay on P2Y13 receptor transfected 1321N1 cells; type: cell-based; details: Table 4, measured from data of Figure 2; comma is decimal sign
Protocol: Compounds were assayed for their agonist activity on P2Y13 GPCR transfected cells using a Ca++ flux assay (associated to fluorescent dye detection) with the Reference Compound as positive reference. Two cell lines, 1321N1-P2Y13 stably expressing human P2Y13 receptor, and 1321N1 parental cell line as control, were used in this assay. 1321N1 Parental and 1321N1 P2Y13 were seeded into T25 flasks at 3 million cells per flask, respectively. Cells were incubated at 37 degrees Celsius in 5% CO2 overnight. The day after, cells were transfected with Gqi5 protein using Fugene transfection reagent (Roche's Fugene Reagent).
After 24 hours of transfection, cells were collected from flasks and seeded in 384-well plates at 8000 cells per well. The assays were carried out 48 hours after Gqi5 transfection.
Methods: The Ca++ flux assay was conducted according to the manufacturer's protocol (Molecular Devices FLIPR Calcium 4 Assay kit (R8142). Briefly, cell culture media were aspirated from the wells and replaced with 25 μL of Hank's buffer or PBS buffer. 25 μL of Ca++ dye was added into each assay well. The plate was incubated for 1 hour at 37° C. in 5% CO2. After the incubation, the plate was transferred to FlexStation III (FlexStation III (Molecular Devices)). The compounds were automatically injected into each well.

[2] = test system: HepG2 cells; experiment: In vitro HDL internalization in human hepatocytes (HepG2) cells; type: cell-based; details: compound 1 μM; 3H-labeled HDL 75 μg/ml, 10 min at 37° C.
Protocol: FIG. 3: Single-dose effect of the selected molecules on HDL internalization by HepG2 cells. Cells were incubated for 10 min at 37° C. with 75 μg/ml ^3H cholesterol Cholesteryl Oleate [Cholesteryl-1,2-^3H(N)] HDL, Reference Compound (100 nM) and illustrative compounds of the invention (1 μM). Data are expressed as the percentage of internalized radioactivity with respect to the control value (set as […]). *p<0.005, **p<0.0001.
The effect of illustrative compounds of the invention on HDL internalization was measured by an in vitro assay on HepG2 cells (FIG. 3). ^3H cholesterol Cholesteryl Oleate [Cholesteryl-1,2-^3H(N)] labeled HDL] (available from PerkinElmer http://www.perkinelmer.com/Catalog/Product/ID/NET746L001MC) was loaded on HepG2 cells in presence of illustrative compounds of the invention (final concentration 1 μM). […] It was determined that Compounds XIa, IIc, IIa and Ih (R-isomer) have a strong impact on HDL uptake by HepG2 cells; Compounds IIb, VIIa and VIIIa have a modest impact on HDL uptake by HepG2 cells.
^3H cholesterol Cholesteryl Oleate [Cholesteryl-1,2-^3H(N)] (Perkin Elmer) solution (250 μL) was dried and resuspended in acetone (250 μL). The solution was mixed with Lipoprotein delipidated serum (20 mL at 40 mg/mL) and DTNB (0.4 μM final concentration). HDL (7 mg) was added and incubated overnight at 4° C. on gentle rotation. The HDL was purified on KBr gradient as previously described.
Hepatocytes were plated at 300,000 cells/well in 6×-well plates. Two days later, the cells were washed once with DMEM and incubated for 1 hour in DMEM at 37° C. 75 μg of radio-labeled HDL (6500 dpm/μg) were added to the medium and incubated for 10 minutes at 37° C. The cells were washed once with DMEM (2 mL) and incubated for 1.5 hours in DMEM at 4° C., whereupon dissociation occurred. Then the cells were washed once more with cold DMEM (2 mL) and the incorporated cholesterol ether was retrieved from HepG2 cells by the addition of hexane:isopropanol (3:2) solution (1 mL).

[3] = test system: C57Bl6 mice; experiment: Bile acids physiology after IV injection in mice; type: in vivo; details: intravenously 10 nmol/kg, after 4 h; effect slightly higher than with Cangrelor
Protocol: FIG. 5A-B: Single-dose effect of the illustrative compounds of the invention on bile acids secretion after IV injection. Mice were fasted for 2 hours and then injected in the caudal vein with the selected molecules (10 nmol/kg) in PBS solution (100 μl). 4 hours later the bile content was analyzed. FIG. 5A. Data are expressed as the concentration of bile acids. FIG. 5B. Data are expressed as the pool of bile acids per mouse (*p<0.05, **p<0.005, ***p<0.0001). Group of animals n=5.
Bile acids are derived from cholesterol and their synthesis is the predominant pathway for catabolism of cholesterol. The HDL uptake by the liver is directly connected with the bile acids secretion and the bile cholesterol clearance. […] An increase of bile acids concentration as well as of the bile volume was observed. All the compounds responded as well as or even better than the control compound (Reference Compound).
Bile acids were diluted in PBS (1:5000) and the concentration was measured according to the manufacturer protocol with slight modifications. Concentrations of bile acids in the standard curve were varied from […] and the enzymatic reaction was performed for 20 minutes. 4 μl of 1:5000 bile dilution was used for concentration determination.

human P2Y13 receptor, sequence (Q9BPV8 whole entry): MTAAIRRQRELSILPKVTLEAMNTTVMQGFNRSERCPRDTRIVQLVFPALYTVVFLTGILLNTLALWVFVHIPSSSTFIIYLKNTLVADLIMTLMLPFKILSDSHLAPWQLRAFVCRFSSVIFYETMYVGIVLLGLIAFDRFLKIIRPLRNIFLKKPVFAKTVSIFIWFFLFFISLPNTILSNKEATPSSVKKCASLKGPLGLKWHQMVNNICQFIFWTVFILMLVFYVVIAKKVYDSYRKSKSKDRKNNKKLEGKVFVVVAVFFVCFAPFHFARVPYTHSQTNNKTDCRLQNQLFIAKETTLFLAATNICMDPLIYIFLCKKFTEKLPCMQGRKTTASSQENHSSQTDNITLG

EC50 [1]: 40.3 µM
SMILES: CN(C)c1ncc(CN2CCC(c3cc(O)nc(N4CCOCC4)n3)CC2)cn1 [Compound IIa, 6-[1-(2-Dimethylaminopyrimidin-5-ylmethyl)-piperidin-4-yl]-2-morpholin-4-yl-pyrimidin-4-ol]
impact on HDL uptake by HepG2 cells [2]: strong impact | bile acids (BA) and free cholesterol secretion into bile [3]: increase
